In paper PMC4368200, “Triclabendazole Sulfoxide Causes Stage-Dependent Embryolethality in Zebrafish and Mouse In Vitro” (PLoS ONE, 2015):
Marks after values point to notes of the source that are not given here.

Key:
[1] = system: mouse embryos at the one-cell stage; assay: Preimplantation whole embryo culture (preWEC); set-up: species or system B6CBAF1 mice; conditions: for preWEC LOAEC (lethality): GD 0 to GD 4
Description: Female mice (6–12 weeks old) were superovulated by intraperitoneal injections of 5 IU of pregnant mare’s serum gonadotropin (Intervet, Spain) and 5 IU of human chorionic gonadotropin (Farma-Lepori, Spain), 48 h apart, and mated with adult males (2:1). Embryos at the one-cell stage were obtained 24 h after the second injection by tearing the oviducts in Hepes-buffered Chatot Ziomek Bavister medium with 150 U/ml hyaluronidase (HCZB) to dissociate the cumulus cells. Denuded embryos were then washed in HCZB and cultured for 96 h in drops of culture medium, potassium simplex optimized medium (KSOM) under oil at 37°C and 5% CO2, with or without the compounds of study. TCBZ and TCBZSO dissolved in DMSO were diluted in KSOM medium and the final DMSO concentration in the culture medium was […]. Control embryos were cultured in the presence of […]. Embryos were observed under the stereomicroscope every 24 h to assess if they were progressing normally until the blastocyst stage or, otherwise, they were arrested in a previous developmental stage. In each observation the number of embryos at the correct developmental stage (two-cells at 24 h, four-cells at 48 h, morula at 72 h and blastocyst at 96 h) were counted.
TCBZ and TCBZSO concentration ranges for the preWEC study were selected based on the results of the ZFET. The tested concentrations for this technique were 1 μM, 3 μM and 10 μM for TCBZ studies and 3 μM, 10 μM, 30 μM and 100 μM for TCBZSO studies.

[2] = system: rat embryos explanted at GD 9.5; assay: Postimplantation whole embryo culture (postWEC); set-up: species or system Sprague Dawley rats; key to Yolk sac circulation (median): 1 = few/abnormal vessels, 2 = delayed, 3 = complete vascularization; key to Morphological score: sum of structure scores; higher = more advanced differentiation; conditions: for Crown-rump length / Dysmorphogenic embryos / Morphological score / Somites number / Yolk sac circulation (median): 48 h; for postWEC LOAEC / postWEC NOAEC: GD 9.5-11.5, 48 h; for Teratogenic/dysmorphogenic potency, times lower than ABZ: postimplantation rodent embryos
Description: Nulliparous female rats, which were checked to be in the oestrus phase of the oestrous cycle, were housed with adult males (1:1) for 4 h, considering 2 h of light and 2 h of darkness. Mating was confirmed by the presence of sperm in vaginal smear, and the following 24 h were considered as gestational day 0 (GD 0).
Rat embryos were explanted and evaluated as described before with some variations. Briefly, embryos were explanted at GD 9.5 under sterile conditions. Two embryos were incorporated in flasks filled with 3.5 mL of culture medium which contained 20% of rat serum and 80% of serum mixture (Biochrom AG; Berlin, Germany). TCBZ, TCBZSO, ABZ and ABZSO were dissolved in dimethyl sulfoxide (DMSO; Sigma Aldrich Spain) and added to the culture medium to a final DMSO concentration of 0.1%. Culture flasks were oxygenated at the beginning of the culture with a gas mixture containing 12% O2 and after 38 h with a gas mixture containing 50% O2. Embryos were cultured at a temperature of 38°C, under rotation at a speed of 25 rpm (Noria R, Ovan Spain) for 48 h. After this period, embryos presenting yolk sac circulation and heartbeat were considered alive and were selected for further evaluation. The yolk sac circulation was evaluated according to the level of formation of blood vessels, giving a score of 1 in the cases in which few vessels were observed or the vascularization was abnormal, a score of 2 when a delay in vascularization was observed and 3 for complete vascularization, as previously described in [35]. Growth evaluation was assessed by crown-rump length and differentiation was evaluated by counting the number of somites and the morphological score. This score is the sum of the scores given to several embryonic structures depending on their differentiation stage, corresponding higher values with higher stages of differentiation. Furthermore, the percentage of dysmorphogenesis was calculated according to [36].
For the postWEC experiments, the selected concentrations were 140 μM, 278 μM and 556 μM for TCBZ and 267 μM, 666 μM and 932 μM for TCBZSO. The tested concentrations for ABZ analysis were 0.4 μM, 1.1 μM and 1.9 μM and for ABZSO were 3.4 μM, 9 μM, 12 μM, 14 μM and 16 μM.

CSc1nc2cc(Cl)c(Oc3cccc(Cl)c3Cl)cc2[nH]1 [TCBZ, 5-chloro-6-(2,3-dichlorophenoxy)-2-(methylthio)benzimidazole]
Lethality 2-cells 24 h ([1]; 1 μM): 4.2%
Lethality 4-cells 48 h ([1]; 1 μM): 8.3%
Lethality Blastocyst 96 h ([1]; 1 μM): 18.8%
Lethality Morula 72 h ([1]; 1 μM): 8.3%
Adverse effects in preimplantation embryos ([1]; 3 μM): did not produce any significant effect
Lethality 2-cells 24 h ([1]; 3 μM): 6.3%
Lethality 4-cells 48 h ([1]; 3 μM): 6.3%
Lethality Blastocyst 96 h ([1]; 3 μM): 20.8%
Lethality Morula 72 h ([1]; 3 μM): 10.4%
Lethality 2-cells 24 h ([1]; 10 μM): 18.4 ^* %
Lethality 4-cells 48 h ([1]; 10 μM): 24.5 ^* %
Lethality Blastocyst 96 h ([1]; 10 μM): 36.7%
Lethality Morula 72 h ([1]; 10 μM): 24.5 ^* %
preWEC LOAEC (lethality) [1]: 10 µM
Lethal concentration in preimplantation embryos, times higher than in vivo relevant concentrations ([1]; preWEC): 10 times
Crown-rump length ([2]; 140 μM): 3.5 ± 0.2 mm
Dysmorphogenic embryos ([2]; 140 μM): 0%
Morphological score ([2]; 140 μM): 39.0 ± 1.5
Somites number ([2]; 140 μM): 26.9 ± 1.1
Yolk sac circulation (median) ([2]; 140 μM): 3.0
Frequency of dysmorphogenesis: Branchial bars ([2]; 278 µM): 25%
Frequency of dysmorphogenesis: Flexion ([2]; 278 µM): 12.5%
Frequency of dysmorphogenesis: Head ([2]; 278 µM): 12.5%
Frequency of dysmorphogenesis: Otic vesicles ([2]; 278 µM): 12.5%
Frequency of dysmorphogenesis: Yolk sac ([2]; 278 µM): 62.5%
Crown-rump length ([2]; 278 μM): 3.2 ± 0.5 mm
Dysmorphogenic embryos ([2]; 278 μM): 62.5 ^* %
Morphological score ([2]; 278 μM): 35.1 ± 5.9
Somites number ([2]; 278 μM): 25.7 ± 2.0
Yolk sac circulation (median) ([2]; 278 μM): 1.0 ^*
Frequency of dysmorphogenesis: Branchial bars ([2]; 556 µM): 100%
Frequency of dysmorphogenesis: Flexion ([2]; 556 µM): 50%
Frequency of dysmorphogenesis: Head ([2]; 556 µM): 75%
Frequency of dysmorphogenesis: Heart ([2]; 556 µM): 12.5%
Frequency of dysmorphogenesis: Optic vesicles ([2]; 556 µM): 37.5%
Frequency of dysmorphogenesis: Yolk sac ([2]; 556 µM): 100%
Crown-rump length ([2]; 556 μM): 2.6 ± 0.6 mm
Dysmorphogenic embryos ([2]; 556 μM): 100%
Morphological score ([2]; 556 μM): 21.0 ± 3.0
Yolk sac circulation (median) ([2]; 556 μM): 1.0 ^*
postWEC LOAEC [2]: 278 µM
postWEC NOAEC [2]: 140 µM
Teratogenic/dysmorphogenic potency, times lower than ABZ [2]: approximately 250 times
Teratogenic/dysmorphogenic potency, times lower than ABZ ([2]; listed as Triclabendazole): 250 times

C[S+]([O-])c1nc2cc(Oc3cccc(Cl)c3Cl)c(Cl)cc2[nH]1 (stereo not drawn) [TCBZSO, Triclabendazole sulfoxide]
Adverse effects in preimplantation embryos ([1]; 3 μM): did not induce adverse effects
Lethality 2-cells 24 h ([1]; 3 μM): 4.2%
Lethality 4-cells 48 h ([1]; 3 μM): 14.6%
Lethality Blastocyst 96 h ([1]; 3 μM): 31.3%
Lethality Morula 72 h ([1]; 3 μM): 16.7%
Lethality 2-cells 24 h ([1]; 10 μM): 24.5 ^* %
Lethality 4-cells 48 h ([1]; 10 μM): 30.6 ^* %
Lethality Blastocyst 96 h ([1]; 10 μM): 55.1 ^* %
Lethality Morula 72 h ([1]; 10 μM): 36.7 ^* %
Lethality 2-cells 24 h ([1]; 30 μM): 24.5 ^* %
Lethality 4-cells 48 h ([1]; 30 μM): 79.6 ^* %
Lethality Blastocyst 96 h ([1]; 30 μM): 98 ^* %
Lethality Morula 72 h ([1]; 30 μM): 95.9 ^* %
Lethality 2-cells 24 h ([1]; 100 μM): 100 ^* %
Lethality 4-cells 48 h ([1]; 100 μM): 100 ^* %
Lethality Blastocyst 96 h ([1]; 100 μM): 100 ^* %
Lethality Morula 72 h ([1]; 100 μM): 100 ^* %
preWEC LOAEC (lethality) [1]: 10 µM
Crown-rump length ([2]; 267 μM): 3.4 ± 0.4 mm
Dysmorphogenic embryos ([2]; 267 μM): 0%
Morphological score ([2]; 267 μM): 37.9 ± 2.8
Somites number ([2]; 267 μM): 26.6 ± 1.6
Yolk sac circulation (median) ([2]; 267 μM): 3.0
Frequency of dysmorphogenesis: Branchial bars ([2]; 666 µM): 11.1%
Frequency of dysmorphogenesis: Head ([2]; 666 µM): 33.3%
Frequency of dysmorphogenesis: Optic vesicles ([2]; 666 µM): 33.3%
Frequency of dysmorphogenesis: Yolk sac ([2]; 666 µM): 33.3%
Crown-rump length ([2]; 666 μM): 3.1 ± 0.7 mm
Dysmorphogenic embryos ([2]; 666 μM): 55.6 ^* %
Morphological score ([2]; 666 μM): 30.8 ± 7.1
Somites number ([2]; 666 μM): 25.1 ± 2.1
Yolk sac circulation (median) ([2]; 666 μM): 3.0 ^*
Frequency of dysmorphogenesis: Branchial bars ([2]; 932 µM): 100%
Frequency of dysmorphogenesis: Flexion ([2]; 932 µM): 87.5%
Frequency of dysmorphogenesis: Head ([2]; 932 µM): 75%
Frequency of dysmorphogenesis: Limbs ([2]; 932 µM): 12.5%
Frequency of dysmorphogenesis: Optic vesicles ([2]; 932 µM): 62.5%
Frequency of dysmorphogenesis: Otic vesicles ([2]; 932 µM): 25%
Frequency of dysmorphogenesis: Yolk sac ([2]; 932 µM): 100%
Crown-rump length ([2]; 932 μM): 2.3 ± 0.5 mm
Dysmorphogenic embryos ([2]; 932 μM): 100 ^* %
Morphological score ([2]; 932 μM): 20.3 ± 2.7
Yolk sac circulation (median) ([2]; 932 μM): 1.0 ^*
postWEC LOAEC [2]: 666 µM
postWEC NOAEC [2]: 267 µM
Teratogenic potency, times less potent than parent compound TCBZ ([2]; postWEC): 2.5 times
